Experimental data as given in ChEMBL document CHEMBL1140784, “Leishmanicidal and trypanocidal activities of 2-aminocyclohexanol and 1,2-cyclohexanediamine derivatives” (Bioorg Med Chem Lett, 2008).

Experiments:
[1] = tested on: Leishmania amazonensis; test: Antileishmanial activity against Leishmania amazonensis IFLA/BR/67 promastigotes at pH 8.0 after 72 hrs; format: functional, organism-based
[2] = tested on: Leishmania braziliensis; test: Antileishmanial activity against Leishmania braziliensis MHOM/BR/75/M2903 promastigotes after 72 hrs; format: functional, organism-based; details: MHOM/BR/75/M2903, 72 h
[3] = tested on: Trypanosoma cruzi; test: Antitrypanosomal activity against Trypanosoma cruzi Tulahuen epimastigotes after 72 hrs; format: functional, organism-based
[4] = tested on: Leishmania donovani; test: Antileishmanial activity against Leishmania donovani MHOM/BR/74/PP75 promastigotes after 72 hrs; details: MHOM/BR/74/PP75, 72 h

SMILES | IC50 [1] [µM] | IC50 [2] [µM] | IC50 [3] [µM] | IC50 [4] [µM]
CCCCCCCCCCCCC/C=C1/CCC[C@@H](NCCCC)[C@@H]1OC(C)=O | 7.3 | 7.3 | 1.2 | 9.6
CCCCCCCCCCCCC/C=C1/CCC[C@@H](NCc2ccccc2)[C@@H]1NCCCCCC | 15.5 | 10.8 | 98 | 13
CCCCCCCCCCCCC/C=C1/CCC[C@H](O)[C@H]1OC(C)=O | 11.6 | 13.3 | 8.8 | 13.3
CCCCCCCCCCCCC/C=C1/CCC[C@H](NCCCC)[C@H]1OC(C)=O | 9.1 | 8.8 | 8.6 | 8.6
CCCCCCCCCCCCC/C=C1/CCC[C@H](OCc2ccccc2)[C@H]1N(CC)CC | 157 | 148 | 106 | 157
CCCCCCCCCCCCC/C=C1/CCC[C@@H]2[C@H]1N2Cc1ccccc1 (stereo partly specified) | 16.2 | 16.2 | 31 | 19.9
CCCCCCCCCCCCC/C=C1/CCC[C@@H](NCCCC)[C@@H]1NCCCCCC | 14 | 14 | 116 | 17.4
CCCCCCCCCCCCC/C=C1/CCC[C@@H]2[C@H]1N2CCCCCC (stereo partly specified) | 2.4 | 2.4 | 51 | 1.8
CCCCCCCCCCCCC/C=C1/CCC[C@H](O)[C@H]1NCCN (relative stereo) | 1.1 | 1.1 | 0.14 | 1.1
CCCCCCCCCCCCCC[C@@H]1CCC[C@H](O)[C@H]1N (relative stereo) | 0.26 | 0.29 | 0.19 | 0.29
C[C@@H]1[C@H](O)[C@@H](C)/C=C/C=C/C=C/C=C/C=C/C=C/C=C/[C@H](O[C@@H]2O[C@H](C)[C@@H](O)[C@H](N)[C@@H]2O)C[C@@H]2O[C@](O)(C[C@@H](O)C[C@@H](O)[C@H](O)CC[C@@H](O)C[C@@H](O)CC(=O)O[C@H]1C)C[C@H](O)[C@H]2C(=O)O (stereo in doubt) [AMPHOTERICIN B] | 0.2 | 0.2 |  | 
O=C(Cn1ccnc1[N+](=O)[O-])NCc1ccccc1 [BENZNIDAZOLE] |  |  | 74 | 
N=C(N)c1ccc(OCCCCCOc2ccc(C(=N)N)cc2)cc1 [PENTAMIDINE] | 29.4 | 29.4 |  | 29.4
